Assay results: US6121431A, “Nucleoside derivatives” (Medivir AB, priority 1990, dated 2000)

What was measured:
[1] = test system: human immuno deficiency virus; experiment: Effect of compounds of the formula I on HIV in H9 cells (HIV multiplication in cell culture, HIV antigen containing cells); type: cell-based; settings: Human immunodeficiency virus 1, HIV (HTLV-IIIB), 6-7 days, 37° C., read-out: Concentration for 50% inhibition (IC50) of human immuno deficiency virus multiplication in cell culture
Description: Test I. Effect of compounds of the formula I on HIV in H9 cells
HIV Infection of H9 Cells
H9 cells, 10^5 cells per well on a 24 well plate, suspended in 2 ml RPMI-medium containing 10% fetal calf serum […] penicillin, 10 mg/mil streptomycin sulfate and 2 mg/ml polybrene are exposed to HIV (HTLV-IIIB) and different concentrations of the test compounds. The plates are incubated at 37° C. in 5% CO2 for 6-7 days. The contents in each well is then homogenized with a pipette and transferred to a centrifuge tube. After centrifugation for 10 min at 1500 rpm the supernatant is removed and the cell pellet is analyzed by fixing in methanol on glass plates. Human HIV positive serum diluted 1:80 or 1:160 is added and incubated for 30 min at 37° C. The plate is then washed with phosphate-buffered saline (PBS) containing Ca^2+ and Mg^2+. Sheep antihuman conjugate (FITC) is added and after a new incubation the plate is again washed with PBS. Contrast staining is done with Evans blue and after drying the frequency of HIV antigen containing cells is determined in a microscope.

[2] = test system: H9 cells; experiment: Cellular toxicity on H9 cells (inhibition of cell multiplication); type: cell-based; settings: Homo sapiens, 1 mM, 48 h
Description: Test II. Cellular toxicity
H9 cells, 2×10^7 cells per plate, are incubated in RPMI-1640 medium containing 10% fetal calf serum, 70 mg/l penicillin, 100 mg/l streptomycin and 10 mM hepes, in absence or presence of test compounds. The number of cells per plate is determined after 48 h. Cells incubated in the absence of test compounds then underwent two cell division cycles.
F5000 cells, which are human embryo cells, 1×10^5 cells per plate, are incubated in Eagle's minimal essential medium, supplemented with Earle's sals, non-essential amino acids, 10% fetal calf serum, 10 mM hepes, 70 mg/l penicillin and 100 mg/l streptomycin, in absence or presence of test compounds. The number of cells per plate is determined after 48 h. Cells incubated in the absence of test compounds underwent one cell division cycle.

SMILES | IC50 [1] [µM] | inhibition at 1000 µM [2] [%]
Nc1ccn([C@H]2C[C@H](CO)[C@@H](CO)O2)c(=O)n1 [1-2',3'-Dideoxy-3'-C-(hydroxymethyl)-β-D-erythropentofuranosyl]-cytosine] | 0.01 | 50
Cc1cn([C@@H]2C[C@H](CO)[C@@H](CO)O2)c(=O)[nH]c1=O [1-(2',3'-Dideoxy-3'-C-(hydroxymethyl)-α-D-erythro-pentafuranosyl]thymine] | 10 | 
Nc1ccn([C@@H]2C[C@H](CO)[C@@H](CO)O2)c(=O)n1 [1-[2',3'-Dideoxy-3'-C-(hydroxymethyl)-α-D-erythro-pentafuranosyl]cytosine] | 5 | 
Cc1cn([C@H]2C[C@H](CO)[C@@H](CO)O2)c(=O)[nH]c1=O [1-[2',3'-Dideoxy-3'-C-(hydroxymethyl)-β-D-erythro-pentofuranosyl]-thymine] | 5 | 
Nc1ncnc2c1ncn2[C@@H]1C[C@H](CO)[C@@H](CO)O1 [9-[2',3'-Dideoxy-3'-C-(hydroxymethyl)-α-D-erythropentofuranosyl]-adenosine] | 10 | 
